As a reminder, the Km is the concentration of substrate that gives half-maximal velocity.

This test relates to T1, HcPT.
T1 construct: pFastBac1 baculovirus, microsomes of Sf9 insect cells
In words: HPLC-DAD prenylation assay with Sf9 microsomes, Lineweaver-Burk. It is filed as biochemical, Hypericum calycinum. The conditions noted are these: 4 mM MgCl2, 0.5 mM dithiothreitol, 50 mM potassium phosphate pH 7.5, 40 °C, 30 min.

For the compound `O=c1c2cc(O)c(O)cc2oc2cc(O)cc(O)c12` [1,3,6,7-THX, 1,3,6,7-tetrahydroxyxanthone], under “400 µM DMAPP constant”, the Km was found to be 211 ± 16 µM.
In the case of `CC(C)=CCOP(=O)(O)OP(=O)(O)O` [DMAPP, dimethylallyl diphosphate], the Km (500 µM 1,3,6,7-tetrahydroxyxanthone constant) came out at 87 ± 5 µM.
